Measurements from US4888287A, “Rapid differentiation of fungi from bacteria using polyene antibiotics” (Eastman Kodak Company, priority 1986, dated 1989).

Experiments:
E. coli = assay: Inhibition of RIND IX reduction by E. coli (gram-negative) in solution (Example 1, Table II); format: cell-based, Escherichia coli (ATCC 25922)
Experimental: (§1) gram-negative microorganism Escherichia coli (ATCC 25922), gram-positive microorganism Staphylococcus aureus (ATCC 25923), and Candida albicans yeast cells (ATCC 14053), brain heart infusion broth (BHI) and Sabaroud's dextrose broth (SAB) from Difco Laboratories (Detroit, Michigan, U.S.A.), and Aspergillus flavus (ATCC 20047), a mold from American Type Culture Collection (Rockville, Maryland, U.S.A.).
(§2) E. coli and S. aureus were grown overnight in BHI broth at 37° C. C. albicans and A. flavus were grown overnight at 25° C. in SAB broth with agitation. […]
(§3) Test solutions were prepared by adding in order: 1.2 ml of HEPES buffer, 50 μl glucose solution, 1.5 ml of RIND IX dispersion, 100 μl of antibiotic solution, 100 μl of cell suspension and 25 μl of ETA solution. […] Optical density readings (OD) were measured at 635 nm at 0 minutes and after incubation at 37° C. for 30 minutes for test and Control solutions, and the change in density (ΔOD) was determined. Table II below lists the results, expressed as corrected percent inhibition of the reduction of the RIND compound. The corrected percent inhibition is calculated by dividing the difference between the ΔOD obtained from the Control without antibiotic and the ΔOD of the test solution, by ΔOD of the Control without antibiotic. All readings were corrected by subtracting readings of the appropriate background control. […]

C. albicans = assay: Inhibition of RIND IX reduction by C. albicans (yeast) in solution (Example 1, Table II); format: cell-based, Candida albicans (ATCC 14053)
Experimental: E. coli and S. aureus were grown overnight in BHI broth at 37° C. C. albicans and A. flavus were grown overnight at 25° C. in SAB broth with agitation. The cells were harvested by centrifugation, washed and resuspended in 0.05 molar N-2-hydroxyethylpiperazine-N'-2-ethanesulfonic acid (HEPES) buffer (pH 7.8).
Dispersions containing RIND compounds were prepared by dissolving, for example, RIND VII from Table I above in N,N-dimethylformamide (DMF) at 16 mg compound per ml of solvent. An aliquot (250 μl) of the resulting solution was added to 500 μl of TRITON X-100 surfactant. This mixture was then added dropwise with stirring to 25 ml of 0.05 molar HEPES buffer.
The following materials were used in this example: stock solutions of RIND IX compound dispersion prepared as described above, glucose (10% in water), trimethyl-1,4-benzoquinone ETA (1.5 mg/ml methanol), and the antibiotics (25 mg/ml in dimethyl sulfoxide, except that filipin was 12.5 mg/ml of solvent). Bacteria and yeast were grown as described above. The approximate final cell concentrations in the assay mixture were 4.2×10^8 cells/ml of E. coli, 7.1×10^8 cells/ml of S. aureus, and 7×10^5 of C. albicans.
Test solutions were prepared by adding in order: 1.2 ml of HEPES buffer, 50 μl glucose solution, 1.5 ml of RIND IX dispersion, 100 μl of antibiotic solution, 100 μl of cell suspension and 25 μl of ETA solution. Cell control solutions contained all reagents except antibiotics. Background controls consisted of both buffer and solution controls. The buffer control contained all reagents except antibiotics and cells. The solution control contained all reagents except cells. Optical density readings (OD) were measured at 635 nm at 0 minutes and after incubation at 37° C. for 30 minutes for test and Control solutions, and the change in density (ΔOD) was determined. […] The corrected percent inhibition is calculated by dividing the difference between the ΔOD obtained from the Control without antibiotic and the ΔOD of the test solution, by ΔOD of the Control without antibiotic. All readings were corrected by subtracting readings of the appropriate background control.
Solutions containing 2.9 ml HEPES, 50 μl of the antibiotic solution, and 100 μl cell solution were incubated at 37° C. for 30 minutes, centrifuged for 10 minutes and decanted. The resulting pellet was then treated with 1.4 ml HEPES, 50 μl glucose solution, 1.5 ml RIND IX dispersion and 25 μl ETA solution, mixed well and the optical densities recorded as described above in Method 1. The corrected percent inhibition data was calculated as described in Method 1 above.

S. aureus = assay: Inhibition of RIND IX reduction by S. aureus (gram-positive) in solution (Example 1, Table II); format: cell-based, Staphylococcus aureus (ATCC 25923); conditions: Method 1, 635 nm, 37° C., 30 min
Experimental: as §1, §2, §3

[1] = Reduction potential E1/2 of the quinone nucleus of RIND compounds (Table I); format: physicochemical; conditions: quinone nucleus with H in place of the releasing group; aqueous emulsion, DMF, nonionic surfactant, phosphate buffer pH 7; standard calomel electrode
Source text: Examples of such nuclei are presented below.
Preferably, the E1/2 is from about +100 mV to about +400 mV as measured in water, or from about -650 to about -300 mV as measured in acetonitrile. […] Further details of measuring the E1/2 are described below prior to Table I. The desired E1/2 is achieved by appropriate electron withdrawing groups on the CAR-nucleus, or by a strained fused ring attached to the nucleus or by a combination of both.
Representative RIND compounds are listed in Table I below in reference to the following structure: [drawing 3] The E1/2 values in Table I were determined for the quinone nucleus of this structure having a hydrogen atom in place of [drawing 4] The E1/2 values (where available) were measured in an aqueous emulsion of the quinone dissolved in N,N-dimethylformamide, a nonionic surfactant (for example, TRITON X-100) and sodium phosphate buffer (pH 7). A standard calomel electrode was used as a standard. Some E1/2 values (denoted by *) were measured in acetonitrile using a saturated calomel electrode as a standard. E1/2 values not available are denoted by "NA".

[2] = Method 1, 635 nm, 37° C., 30 min
[3] = Method 2, preincubation for 1 hour, 635 nm

Compound | Corrected % Inhibition (C. albicans; [2]) [%] | Corrected % Inhibition (S. aureus) [%] | further results
C[C@@H]1[C@H](O)[C@@H](C)/C=C/C=C/C=C/C=C/C=C/C=C/C=C/[C@H](O[C@@H]2O[C@H](C)[C@@H](O)[C@H](N)[C@@H]2O)C[C@@H]2O[C@](O)(C[C@@H](O)C[C@@H](O)[C@H](O)CC[C@@H](O)C[C@@H](O)CC(=O)O[C@H]1C)C[C@H](O)[C@H]2C(=O)O [Amphotericin B, amphotericin B] | – | – | Corrected % Inhibition (E. coli; [2]): 15.1%
C[C@@H]1C/C=C/C=C/C=C/C=C/[C@H](O[C@@H]2O[C@H](C)[C@@H](O)[C@H](N)[C@@H]2O)C[C@@H]2O[C@](O)(C[C@@H](O)C[C@H]3O[C@@H]3/C=C/C(=O)O1)C[C@H](O)[C@H]2C(=O)O [Natamycin, natamycin] | 77.9 | 0.3 | –
C[C@@H]1[C@H](O)[C@@H](C)/C=C/C=C/CC/C=C/C=C/C=C/C=C/C(O[C@H]2O[C@H](C)[C@@H](O)[C@H](N)[C@@H]2O)CC2O[C@](O)(CC(O)C(O)CCC(O)CC(O)CC(O)CC(=O)O[C@H]1C)CC(O)C2C(=O)O (some centres unmarked) [Nystatin, nystatin] | 76.2 | 9.8 | –
COc1cccc(C2=C(CN(C)C(=O)Oc3ccc(N=Nc4ccc([N+](=O)[O-])cc4S(C)(=O)=O)c4c(NS(=O)(=O)c5cccc(S(N)(=O)=O)c5)cccc34)C(=O)C3=C(CCCC3)C2=O)c1 [X] | – | – | E1/2 [1]: +154 mV
candicidin | – | – | Corrected % Inhibition (E. coli; [3]): 12.5%; Corrected % Inhibition (C. albicans; [3]): 62.8%
